Results reported in PubChem BioAssay AID328 (DTP/NCI, 2004).
Several values for one entry are separate records, joined by “and”; a condition that tells them apart may be missing. Equal values may be shown once. Inconclusive results and toxic doses are left out. How the source made its calls: active means survival T/C of 150% or more; inactive means T/C below 125% in these data.

Tested on: BDF1 mice, P388 leukemia ip, median survival T/C
Test: NCI In Vivo Anticancer Drug Screen. Data for tumor model P388 Leukemia (intraperitoneal) in B6D2F1 (BDF1) mice
Details: endpoint: median survival time, higher = longer survival
Outline: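 Steps: implant the tumour, treat one group with compound and another with vehicle, record survival, then divide treated by control.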

[1] = dose: 50.0 mg/kg/injection, schedule: Q01DX009 (ip), vehicle: Klucel (hydroxypropylcellulose) (HPC)
[2] = dose: 100.0 mg/kg/injection, schedule: Q01DX009 (ip), vehicle: Klucel (hydroxypropylcellulose) (HPC)
[3] = dose: 100.0 mg/kg/injection, schedule: Q04DX003 (ip), vehicle: Klucel (hydroxypropylcellulose) (HPC)
[4] = dose: 200.0 mg/kg/injection, schedule: Q04DX003 (ip), vehicle: Klucel (hydroxypropylcellulose) (HPC)
[5] = dose: 400.0 mg/kg/injection, schedule: Q04DX003 (ip), vehicle: Klucel (hydroxypropylcellulose) (HPC)
[6] = dose: 25.0 mg/kg/injection, schedule: Q01DX009 (ip), vehicle: saline with Tween-80
[7] = dose: 50.0 mg/kg/injection, schedule: Q01DX009 (ip), vehicle: saline with Tween-80

Measured: T/C

N#CC(=C1C=CC(=NO)C=C1)c1ccc(Cl)cc1
inactive: dose: 25.0 mg/kg/injection, schedule: Q01DX009 (ip), vehicle: Klucel (hydroxypropylcellulose) (HPC) 114 % of control | dose: 25.0 mg/kg/injection, schedule: Q04DX003 (ip), vehicle: Klucel (hydroxypropylcellulose) (HPC) 102 % of control | [1] 114 % of control | dose: 50.0 mg/kg/injection, schedule: Q04DX003 (ip), vehicle: Klucel (hydroxypropylcellulose) (HPC) 98 % of control | [2] 117 % of control | [3] 110 % of control | [4] 122 % of control | [5] 113 % of control

O=[N+]([O-])c1ccc(NCc2ccccc2)nc1
inactive: [6] 107 % of control | [7] 109 % of control | dose: 100.0 mg/kg/injection, schedule: Q01DX009 (ip), vehicle: saline with Tween-80 114 % of control

[Cl][Rh][Cl].[NH-]c1ccc(S(=O)(=O)Nc2ccccn2)cc1.[NH-]c1ccc(S(=O)(=O)Nc2ccccn2)cc1.[NH-]c1ccc(S(=O)(=O)Nc2ccccn2)cc1.[NH-]c1ccc(S(=O)(=O)Nc2ccccn2)cc1
inactive: dose: 100.0 mg/kg/injection, schedule: Q04DX003 (ip), vehicle: saline with Tween-80 108 % of control | dose: 200.0 mg/kg/injection, schedule: Q04DX003 (ip), vehicle: saline with Tween-80 94 % of control | dose: 400.0 mg/kg/injection, schedule: Q04DX003 (ip), vehicle: saline with Tween-80 91 % of control

CC(C)(C)N=Cc1ccccc1O.CC(C)(C)N=Cc1ccccc1O.[Cu]
inactive: dose: 6.25 mg/kg/injection, schedule: Q04DX003 (ip), vehicle: saline 100 % of control | dose: 12.5 mg/kg/injection, schedule: Q04DX003 (ip), vehicle: saline 90 % of control | dose: 25.0 mg/kg/injection, schedule: Q04DX003 (ip), vehicle: saline 95 % of control

COCCn1c2nc(=O)n(-c3ccccc3)c(=O)c-2nc2ccccc21
inactive: dose: 12.5 mg/kg/injection, schedule: Q01DX009 (ip), vehicle: saline with Tween-80 89 % of control | [6] 114 % of control | [7] 91 % of control

CCOC(=O)C(C)(C)CCl
inactive: [3] 90 % of control | [4] 90 % of control | [5] 100 % of control

Oc1c(Cl)cc(Cl)cc1C1N2CCCCC2C2c3cccn3-c3ccccc3N21 (stereo not drawn)
inactive: [1] 93 % of control | [2] 90 % of control

C#CCCCOC(=O)Nc1ccccc1
inactive: [1] 90 % of control | [2] 90 % of control

COc1ccc(/C=C/C(=O)c2ccccc2)cc1OC
inactive: dose: 37.5 mg/kg/injection, schedule: Q01DX009 (ip), vehicle: Klucel (hydroxypropylcellulose) (HPC) 117 % of control | dose: 50.0 mg/kg/injection, schedule: Q01DX009 (ip), vehicle: water 92 % of control | dose: 75.0 mg/kg/injection, schedule: Q01DX009 (ip), vehicle: Klucel (hydroxypropylcellulose) (HPC) 111 % of control | dose: 100.0 mg/kg/injection, schedule: Q01DX006 (ip), vehicle: water 115 % of control | [2] 105 % of control | dose: 100.0 mg/kg/injection, schedule: Q01DX009 (ip), vehicle: water 115 % of control | [3] 113 % of control | dose: 100.0 mg/kg/injection, schedule: Q04DX003 (ip), vehicle: water 86 % of control | dose: 150.0 mg/kg/injection, schedule: Q01DX009 (ip), vehicle: Klucel (hydroxypropylcellulose) (HPC) 105 % of control | dose: 200.0 mg/kg/injection, schedule: Q01DX006 (ip), vehicle: water 108 % of control | dose: 200.0 mg/kg/injection, schedule: Q01DX009 (ip), vehicle: Klucel (hydroxypropylcellulose) (HPC) 100 % of control | [4] 90 % of control | dose: 200.0 mg/kg/injection, schedule: Q04DX003 (ip), vehicle: water 100 % of control | dose: 300.0 mg/kg/injection, schedule: Q01DX009 (ip), vehicle: Klucel (hydroxypropylcellulose) (HPC) 107 % of control and 111 % of control | dose: 400.0 mg/kg/injection, schedule: Q01DX009 (ip), vehicle: Klucel (hydroxypropylcellulose) (HPC) 109 % of control and 115 % of control | dose: 400.0 mg/kg/injection, schedule: Q01DX009 (ip), vehicle: water 124 % of control | [5] 100 % of control | dose: 400.0 mg/kg/injection, schedule: Q04DX003 (ip), vehicle: water 98 % of control | dose: 500.0 mg/kg/injection, schedule: Q01DX009 (ip), vehicle: Klucel (hydroxypropylcellulose) (HPC) 100 % of control
active: dose: 400.0 mg/kg/injection, schedule: Q01DX006 (ip), vehicle: water 150 % of control | dose: 500.0 mg/kg/injection, schedule: Q01DX006 (ip), vehicle: water 161 % of control
